Reference: patent US20100062464A1, “OXIDATIVE CHROMOGENIC COMPOUND OR SALT THEREOF AND PRODUCTION METHOD THEREOF, AND REAGENT COMPOSITION AND TEST INSTRUMENT USING THE SAME” (Terumo Kabushiki Kaisha, priority 2007, published 2010)

Columns and labels:
[1] = Maximum concentration of coating liquid for measuring glucose (solubility of coupler)
Protocol: As an example of a coating liquid composition for measuring glucose, an experiment was conducted to determine a maximum concentration of a coating liquid.
Basic Composition (in 100 mL Water)

[2] = Time-dependent change in reflection-absorbance of test piece (Example 7); conditions: test piece with MAOS, succinate buffer pH 5.0; human blood, hematocrit 40%, 400 mg/dL blood glucose; FIG. 3
Protocol: Using a coating liquid having a composition shown in the following Table 5, a polyether sulfone membrane (membrane thickness: 130 μm) manufactured by Terumo Corporation was coated by Kiss-Coat method, and dried for 18 hours at 37° C. Then, the membrane was cut to give a 1-cm square as a test piece.
The evaluation using blood was conducted by fixing the test piece in a reflectance spectrophotometer, adding 1 μL of specimen dropwise onto the test membrane from above, and measuring reflection-absorbance continuously or at the predetermined time.
The time-dependent changes in the reflection-absorbance was measured using as a coupler compound 4-amino antyprine (4-AA), CP1 or CP2, the test piece prepared by the above method, and human blood adjusted to 40% of hematocrit level and 400 mg/dL of blood glucose level as specimen. It is noted from the results shown in FIG. 3 that 15 seconds was required for reflection-absorbance to become steady when using 4-AA, a conventional coupler, while less than 5 seconds was required for reflection-absorbance to become steady when using CP1, and particularly when using CP2, reflection-absorbance reached peak within only about 3 seconds. That is, it was observed that a measuring time was able to be shortened by using the reagent composition of the present invention.

[3] = Residual ratio of coupler in test piece after thermal acceleration, HPLC (Example 9); type: physicochemical; conditions: 60° C., 1 hour, oven under vacuum; relative to test piece before thermal acceleration; HPLC 254 nm; FIG. 5
Protocol: Using a coating liquid having a composition shown in the following Table 6, a polyether sulfone membrane (membrane thickness: 130 μm) manufactured by Terumo Corporation was coated by Kiss-Coat method, and dried for 18 hours at 37° C. Then, the membrane was punched out to give a circle of φ6 mm as a test piece.
The test piece was placed in an oven under vacuum at 60° C. for 1 hour to be subjected to thermal acceleration. Then, the test piece was subjected to ultrasonic treatment for 10 minutes using 1 ml of an aqueous 60% acetonitrile solution, and extracted. The amount of reagent in the resultant extract was determined by HPLC under such conditions as of eluent: 60% of acetonitrile/50 mM of phosphate buffer (pH 7.5), eluent flow rate: 1 mL/minute, column temperature: 40° C., column: Hydrosphere C18 250×4.6 mm (manufactured by YMC Co., Ltd.), measuring wavelength: 254 nm, and injection volume: 20 μL. According to this method, the residual ratios of 4-AA and CP2 contained in the test piece after thermal acceleration were respectively compared with those of the test pieces before thermal acceleration. It is noted from the results shown in FIG. 5 that the residual ratio of 4-AA is not more than 70%, while the residual ratio of CP2 is approximately 100%. […]

Row | SMILES | Solubility of coupler ([1]; how many times the amounts of all reagents of the basic composition (100 mL water, TOOS, Triton X-100, citrate pH 5.0) can be increased and still give a uniform solution, coupler equimolar to 4-AA) [times by volume] | Time required for reflection-absorbance to become steady / reach peak [2] | Residual ratio in test piece after thermal acceleration [3] | Solubility as compared with 4-aminoantipyrine [1] | Solubility of coupler ([1]; pH 5) [times by volume]
1 | Cc1c(N)c(=O)n(-c2ccccc2)n1C [4-AA, 4-aminoantipyrine, reference compound] | 5 | 15 s | not more than 70% | – | –
2 | Cc1c(N)c(=O)n(-c2ccc(C(=O)O)cc2)n1C [CP1, 4-amino-1-(4-carboxyphenyl)-2,3-dimethyl-5-pyrazolone] | – | less than 5 seconds | – | high solubility | 8
3 | Cc1c(N)c(=O)n(-c2ccc(S(=O)(=O)O)cc2)n1C [CP2, 4-amino-1-(4-sulfophenyl)-2,3-dimethyl-5-pyrazolone] | – | about 3 seconds | approximately 100% | high solubility | 10
4 | Cc1c(N)c(=O)n(-c2cccc(S(=O)(=O)O)c2)n1C [CP6, 4-amino-1-(3-sulfophenyl)-2,3-dimethyl-5-pyrazolone] | – | – | – | high solubility | 10
